target: human IKCa1 channel (Homo sapiens, UniProt O15554); assay: cell-based; details: not given
Description: COS-7 cells, maintained in Dulbecco's modified Eagle's medium (DMEM) containing 10% heat-inactivated fetal calf serum, 4 mM L-glutamine and 1 mM Na^+ pyruvate, were transiently transfected with hlKCa1.
Electrophysiological experiments were carried out in the whole-cell configuration of the patch-clamp technique using an EPC-9 amplifier (HEKA Elektronik, Lambrecht Germany) interfaced to a computer running acquisition and analysis software (Pulse and Pulsfit; HEKA Elektronik). Pipettes were pulled from soft glass capillaries, coated with Sylgard (Dow-Corning, Midland, Mich.), and fire polished to resistances of 2.0–4.5 MΩ measured in the bath. COS-7 cells were trypsinized and plated on glass coverslips 3 h before measurement. […] To prevent activation of the native chloride channels in COS-7 cells an aspartate Ringer solution was used as an external solution (160 mM Na^+ aspartate, 4.5 mM KCl, 2 mM CaCl2, 1 mM MgCl2, 5 mM HEPES, adjusted to pH 7.4 with NaOH, with an osmolarity of 290–310 mosM). 200 ms voltage ramps from −120 mV to 40 mV every 10 s were used. The holding potential in all experiments was −80 mV. Series resistance compensation was not employed. The reduction of slope conductance at −80 mV was used to determine the Kd-value by fitting the values to the Hill equation with a Hill coefficient of unity.

Sequence of human IKCa1 channel (O15554 whole entry): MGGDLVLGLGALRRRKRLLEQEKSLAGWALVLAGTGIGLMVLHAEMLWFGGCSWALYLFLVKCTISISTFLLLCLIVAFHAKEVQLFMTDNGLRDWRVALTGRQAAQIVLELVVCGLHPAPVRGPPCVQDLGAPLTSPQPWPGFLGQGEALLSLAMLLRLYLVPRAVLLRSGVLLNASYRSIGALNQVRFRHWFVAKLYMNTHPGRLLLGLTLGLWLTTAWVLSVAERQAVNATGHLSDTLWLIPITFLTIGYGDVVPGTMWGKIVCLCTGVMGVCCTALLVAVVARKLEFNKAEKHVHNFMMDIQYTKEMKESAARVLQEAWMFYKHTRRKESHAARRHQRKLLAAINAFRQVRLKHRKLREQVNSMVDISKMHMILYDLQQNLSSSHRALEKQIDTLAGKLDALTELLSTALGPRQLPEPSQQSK

Row | Kd | SMILES
1 | 28000 nM | Clc1ccccc1C(Nc1ccccn1)(c1ccccc1)c1ccccc1 [Compound T69, N-[(2-Chlorophenyl)diphenylmethyl]-N-(2-pyridyl)amine]
2 | 8000 nM | Cc1csc(NC(c2ccccc2)(c2ccccc2)c2ccccc2Cl)n1 [Compound T79, N-[(2-Chlorophenyl)diphenylmethyl]-N-(4-methyl-1,3-thiazol-2yl)amine]
3 | 2000 nM | FC(F)(F)c1ccn(C(c2ccccc2)(c2ccccc2)c2ccccc2Cl)n1 [Compound T65, 1-[(2-Chlorophenyl)diphenylmethyl]-3-(trifluorormethyl)-1H-pyrazole]
4 | 900 nM | Clc1ccccc1C(Nc1ncccn1)(c1ccccc1)c1ccccc1 [Compound T68, N-[(2-Chlorophenyl)diphenylmethyl]-N-(2-pyrimidyl)amine]
5 | 15000 nM | O=[N+]([O-])c1ccc(S(=O)(=O)c2cnc(NC(c3ccccc3)(c3ccccc3)c3ccccc3Cl)s2)cc1 [Compound T81, N-{5-[(4-Nitrophenyl)sulfonyl]-1,3-thiazol-2yl}-N[(2-chlorophenyl)-(diphenyl)-methyl]amine]
6 | 750 nM | OC(c1ccccc1)(c1cccs1)c1ccccc1Cl (centres unmarked) [Compound T43, (2-Chlorophenyl)(2-thienyl)phenyl methanol]
7 | 820 nM | OC(c1ccccc1)(c1ccccc1)c1ccc(C(F)(F)F)cc1 [Compound T55, Diphenyl(4-trifluoromethylphenyl) methanol]
8 | 650 nM | OC(c1ccccc1)(c1ccccc1)c1cccc(C(F)(F)F)c1 [Compound T56, Diphenyl(3-trifluoromethylphenyl) methanol]
9 | 1500 nM | FC(F)(F)c1ccc(C(c2ccccc2)(c2ccccc2)n2cccn2)cc1 [Compound T60, 1-{Diphenyl[4-(trifluoromethyl)-phenyl]methyl}-1H-pyrazole]
10 | 40 nM | Fc1ccccc1C(c1ccccc1)(c1ccccc1)n1cccn1 [Compound T46, 1-[(2-Fluorophenyl)diphenylmethyl]-1H-pyrazole]
11 | 35000 nM | FC(F)(F)c1ccc(C(Nc2nccs2)(c2ccccc2)c2ccccc2)cc1 [Compound T61, N-Diphenyl[4-(trifluoromethyl)phenyl]-methyl-N-(1,3-thiazol-2-yl)amine]
12 | 10000 nM | COc1ccc(C(O)(c2ccc(OC)cc2)c2ccc(OC)cc2)cc1 [Compound T16, Tris-(4-methoxyphenyl) methanol]
13 | 750 nM | N#CC(c1ccccc1)(c1ccccc1)c1ccc(Cl)cc1 [Compound T26, 2-(4-Chlorophenyl)-2,2-diphenylacetonitrile]
14 | 12000 nM | Cc1cc(C)n(C(c2ccccc2)(c2ccccc2)c2ccccc2Cl)n1 [Compound T62, 1-[(2-Chlorophenyl)diphenylmethyl]-3,5-dimethyl-1H-pyrazole]

same assay, conditions: hIKCa1 in COS-7 cells; reduction of slope conductance at −80 mV; 1 μM free Ca++ in pipette

Row | Kd for block of IKCa1 | SMILES
15 | No effect at 10 μM | C[n+]1ccc(C(O)(c2ccccc2)c2ccccc2)cc1 [Compound T8]
16 | No effect at 1 μM | Clc1ccccc1C(c1ccccc1)(c1ccccc1)n1cnc2ccccc21 [Compound T85, 1-[(2-Chlorophenyl)diphenylmethyl]-1H-1,3-benzimidazole]
17 | No effect at 10 μM | O=C1c2ccccc2C(=O)N1C(c1ccccc1)(c1ccccc1)c1ccccc1Cl [Compound T71, 2-[(2-Chlorophenyl)diphenylmethyl]-1H-isoindole-1,3(2H)-dione]

same assay, conditions: read-out: Kd for block of IKCa1; hIKCa1 in COS-7 cells; reduction of slope conductance at −80 mV; 1 μM free Ca++ in pipette

Row | Kd | SMILES
18 | 2000 nM | NC(c1ccccc1)(c1ccccc1)c1ccccc1F [Compound T47, (2-Fluorophenyl)diphenylmethyl amine]
19 | 10000 nM | C[n+]1ccn(C(c2ccccc2)(c2ccccc2)c2ccccc2Cl)c1 [Compound T30]
20 | 1500 nM | c1ccc(C(c2ccccc2)(c2ccccc2)n2ccnc2)cc1 [Compound T86]
21 | 5000 nM | NC(c1ccccc1)(c1ccccc1)c1ccc(F)cc1 [Compound T42, (4-Fluorophenyl)diphenylmethyl amine]
22 | 35000 nM | COc1ccc(C(C#N)(c2ccccc2)c2ccc(OC)cc2)cc1 [Compound T17]

same assay, conditions: refers to TABLE 8

Row | SMILES | IKCa1 inhibition compared with clotrimazole
23 | Fc1ccccc1C(c1ccccc1)(c1ccccc1)n1cccn1 [Compound T46, 1-[(2-Fluorophenyl)diphenylmethyl]-1H-pyrazole] | more potent inhibitors of IKCa1 channels than clotrimazole
